Results from the Biogen ADME set (Fang et al. 2023).
Values after ≈ are worked out from the molar mass of the structure shown.

Conditions: for aqueous solubility: pH 6.8

| MDR1-MDCK efflux ratio | intrinsic clearance, human liver microsomes [mL/min/kg] | intrinsic clearance, rat liver microsomes [mL/min/kg] | aqueous solubility [µg/mL] | fraction unbound, human plasma | fraction unbound, rat plasma | SMILES |
| --- | --- | --- | --- | --- | --- | --- |
| 0.641 | 94.9 | 1180 | 33.6 (≈ 124 µM) |  |  | CN(Cc1cscn1)c1nc2c(cc1C#N)CCC2 |
|  | 7.42 | 724 |  |  |  | Cc1nc(Cn2nnnc2C(C)(C)C)nc2ccccc12 |
| 1.96 | 4.77 | 14.3 | 12.5 (≈ 28.1 µM) |  |  | O=C(/C=C\n1cnc(-c2cc(C(F)(F)F)cc(C(F)(F)F)c2)n1)NNc1cnccn1 |
| 0.639 | 63.1 | 232 | 41.1 (≈ 158 µM) |  |  | Cc1cc(C(=O)NCCc2ccccn2)c(C)s1 |
|  | 24.4 | 850 | 3.72 (≈ 13.5 µM) |  |  | N#Cc1cccnc1Nc1cnn(Cc2ccccc2)c1 |
| 8.95 | 6.75 | 129 | 31 (≈ 107 µM) |  |  | CCCn1ccnc1CNc1nc2c(s1)c(C)nn2C |
| 2.42 | 5.18 | 28.8 | 9.6 (≈ 26.9 µM) |  |  | O=C1Oc2nc3cc4c(cc3cc2CN1CCN1CCOCC1)OCO4 |
| 3.79 | 35.6 | 2700 |  |  |  | Cc1c[nH]c(CNCc2ccccc2CC(C)C)n1 |
| 1.22 | ≤ 4.74 | 116 | 5.86 (≈ 17.3 µM) |  |  | O=C(Nc1ccccc1)N1CCCc2cnc(N3CCOCC3)nc21 |
| 1.57 | 12.5 | 114 |  |  |  | CC(=O)Nc1ccc(CNCCOc2ccc(F)cc2F)cc1 |
|  |  |  | 0.54 (≈ 1.45 µM) |  |  | CC(C)Oc1ccc(C(=O)Nc2cccc(-c3nc4cnccc4o3)c2)cc1 |
| 0.422 | 26.3 | 160 | 53.2 (≈ 185 µM) |  |  | Cc1ncc(C(=O)Nc2ncnc3oc(C)c(C)c23)s1 |
| 9.86 | 25.1 | 550 | 21.4 (≈ 60.9 µM) |  |  | COCCc1nc(CCCn2cccn2)n(C2Cc3ccccc3C2)n1 |
| 10.3 | ≤ 4.74 | 298 |  |  |  | CC(=O)N1CCN(C(=O)CS(=O)(=O)C23CC4CC(CC(C4)C2)C3)CC1 |
| 51.7 | ≤ 4.74 | ≤ 10.7 | 31.5 (≈ 127 µM) |  |  | O=C(CC1CCCC1)NCc1nnc2n1CCC2 |
| 0.742 | 13.3 | 247 | 40.8 (≈ 135 µM) |  |  | CC1(c2nnc(-c3ccc4c(c3)OCCO4)o2)CCOCC1 |
|  | 48.8 | 95.1 |  | 0.0779 | 0.146 | O=C1NCCSc2c1sc1ccc(O)cc21 |
| 32.9 | ≤ 4.74 | 28.8 | 57.1 (≈ 158 µM) |  |  | Cc1ccc2nc3c(c(C(=O)NCc4nnc5n4CCC5)c2c1)CCCC3 |
| 6.4 | 29.6 | 101 | 50 (≈ 158 µM) |  |  | CN(C)C(=O)OCCN1CCC(c2c[nH]c3ncccc23)CC1 |

| MDR1-MDCK efflux ratio | intrinsic clearance, human liver microsomes [mL/min/kg] | intrinsic clearance, rat liver microsomes [mL/min/kg] | aqueous solubility [µg/mL] | fraction unbound, human plasma | fraction unbound, rat plasma | SMILES |
| --- | --- | --- | --- | --- | --- | --- |
| 1.88 | 51.4 | 1070 |  |  |  | C#Cc1cccc(N(CCC(=O)NC(N)=O)Cc2cccs2)c1 |
| 1.11 | ≤ 4.74 | 17.8 | 32.4 (≈ 90.8 µM) |  |  | O=C(O)c1ccc(CN2CC[C@H](c3nc4cc(Cl)ccc4o3)C2)cc1 |
| 0.596 | ≤ 4.74 | ≤ 10.7 | 39.2 (≈ 148 µM) |  |  | O=C(NCc1ccccn1)c1ccc(F)cc1Cl |
| 5.53 | 796 | 2110 | 50.7 (≈ 139 µM) |  |  | CN1C(=O)N(CC(=O)NCc2ccc(Cl)cc2)C(=O)C12CCCCC2 |
| 60 | 345 | 2300 |  |  |  | Cc1cc(Nc2ccc(F)cn2)cc(C2CCN(C(=O)CCn3ncc4ccccc43)C2)n1 (stereo unspecified) |
| 23.3 | 21.5 | 284 |  |  |  | CC(C)Cc1cc(CN2CCN(S(=O)(=O)N3CCOCC3)CC2)n[nH]1 |
| 0.539 | 938 | 2210 | 23.5 (≈ 80 µM) |  |  | COc1cccc(CNc2ncc(-c3ccccc3)n2C)c1 |
|  | 57.1 | 196 | 32.8 (≈ 74 µM) |  |  | CC1(COc2ccc3c(c2)ncn3-c2ccc3cccc(N4CCC(N)CC4)c3n2)COC1 |
|  | 81.6 | 821 | 39.5 (≈ 111 µM) |  |  | COc1cc(CCNC(=O)c2nc3cccc(C)n3c2F)cc(OC)c1 |
|  | 240 | 3170 | 33.9 (≈ 88 µM) |  |  | O=C(C1CCCN(S(=O)(=O)c2ccccc2)C1)N1CCc2ccccc2C1 (stereo unspecified) |
| 2.19 | ≤ 4.74 | 48 | 23 (≈ 96.2 µM) |  |  | CCn1ncnc1-c1[nH]cnc1-c1ccccc1 |
|  | 23.7 | 64.8 | 34.5 (≈ 116 µM) |  |  | Cn1cc(NC(=O)c2csc(Cc3ccccc3)n2)cn1 |
| 0.674 |  |  | 49 (≈ 242 µM) |  |  | Oc1ccc(-c2noc(C3CC3)n2)cc1 |
| 27.1 | ≤ 4.74 | 205 |  |  |  | CC(C)C(=O)N1CCn2nc(CNC3CCc4ccccc4CC3)cc2C1 |
| 45.8 | 74.2 | 279 | 53 (≈ 162 µM) |  |  | Cc1nn(C)c(C)c1CCC(=O)N1CCN(C)Cc2ccccc21 |
|  |  |  | 6.51 (≈ 19.3 µM) |  |  | CC(C)c1cc(NC(=O)Cn2nc(-c3ccccc3)ccc2=O)[nH]n1 |
| 56.4 |  |  | 0.33 (≈ 0.715 µM) |  |  | Cc1ccc(S(=O)(=O)Cc2nc(-c3ccc(C(=O)NCc4cccnc4)cc3)oc2C)cc1 |
|  |  |  | 0.5 (≈ 1.46 µM) |  |  | Cc1ccc(N/N=C2\C(=O)N(C)N=C2Nc2ccccc2Cl)cc1 |
| 6.73 | 821 | 1770 | 47 (≈ 106 µM) |  |  | COc1cccc(N(C)CCC(=O)N2CCC(c3ccc(-c4ccc(N)nc4)cn3)CC2)c1 |

| MDR1-MDCK efflux ratio | intrinsic clearance, human liver microsomes [mL/min/kg] | intrinsic clearance, rat liver microsomes [mL/min/kg] | aqueous solubility [µg/mL] | fraction unbound, human plasma | fraction unbound, rat plasma | SMILES |
| --- | --- | --- | --- | --- | --- | --- |
| 0.459 |  |  | 0.22 (≈ 0.72 µM) |  |  | CC(C)NC(=O)c1cn(-c2ccccc2)nc1-c1ccccc1 |
| 4 | ≤ 4.74 | 16.1 |  |  |  | Cc1cc(C(=O)N(C)c2nc3ccccc3s2)cc(O)n1 |
|  | 11.5 | 118 |  |  |  | CCOC(=O)N1CCc2cc(NC(=O)c3oc(C)cc3C)ccc21 |
| 0.671 | 56.5 | 1000 | 65.2 (≈ 189 µM) |  |  | Cc1cc(N2CCCCC2)nc(CNC(=O)c2ccccc2Cl)n1 |
|  | 61 | 658 | 42.6 (≈ 150 µM) |  |  | Fc1cccc(N[C@H]2CCCN[C@H]2Cc2ccccc2)c1 |
| 1.45 | 12.1 | 28.3 | 1.35 (≈ 3.72 µM) |  |  | Cc1nnc(NC(=O)c2ccccc2-c2ccc(C(F)(F)F)cc2)s1 |
| 1.22 | 76.3 | 510 |  |  |  | Cc1cccc(N2CCN(CCCCNC(=O)c3c(F)cccc3F)CC2)c1 |
|  | 198 | 4260 |  |  |  | O=C(N[C@H](CO)CC1CCCCC1)c1cccc(-c2cnccn2)c1 |
| 1.37 | 11.7 | 213 |  |  |  | Clc1ccc2c(NCCN3CCOCC3)ncnc2c1 |
| 0.666 | 17.8 | 570 | 31.1 (≈ 114 µM) |  |  | COc1ccncc1NCc1ccc2c(c1)OCCO2 |
| 1.21 | 13.5 | 179 | 18.4 (≈ 59.1 µM) |  |  | CC1(c2nnc(-c3cc(-c4ccccc4)n[nH]3)o2)CCOCC1 |
| 1.62 | 700 | 1020 | 12 (≈ 28.9 µM) |  |  | CCC(C)(C)NC(=O)C1(Cc2ccc(-c3cc(F)ccc3OC)cc2)CCOCC1 |
|  | 35 | 339 | 4.25 (≈ 12.1 µM) |  |  | O=c1[nH]c2ccccc2n1C1CCN(c2ncnc3sccc23)CC1 |
| 6.84 | 5.67 | 28.3 |  |  |  | Cc1cc(OCCCS(C)(=O)=O)cc(C)c1-c1cccc(COc2ccc3c(c2)OC[C@@H]3CC(=O)O)c1 |
| 4.1 | ≤ 4.74 | ≤ 10.7 |  |  |  | O=C(O)C1CN(Cc2ccc(OCc3ccc(Cl)c(Cl)c3)cc2)C1 |
| 1.21 | ≤ 4.74 | 19.8 |  |  |  | O=C(c1cc(F)ccc1F)N1CCN(C(=O)C2CC2)CC1 |
| 1.4 | 16.1 | 82.1 |  |  |  | Cc1ncc(C)n2nc([C@@H]3C[C@H]3c3nc4c5cccnc5ccn4c3C)nc12 |
| 31 | 103 | 1070 | 91.2 (≈ 208 µM) |  |  | CNC(=O)c1sc2ncccc2c1[C@H]1CC[C@H](CNC(=O)COc2ccccc2)CC1 |
| 0.743 |  |  | 0.2 (≈ 0.706 µM) |  |  | CCCCOc1ccc(-c2cc3c(=O)[nH]ccn3n2)cc1 |

| SMILES | MDR1-MDCK efflux ratio | intrinsic clearance, human liver microsomes [mL/min/kg] | intrinsic clearance, rat liver microsomes [mL/min/kg] | aqueous solubility [µg/mL] | fraction unbound, human plasma | fraction unbound, rat plasma |
| --- | --- | --- | --- | --- | --- | --- |
| CCN(C(=O)c1cccc(-n2cccn2)c1)c1ccc(C#N)c(Cl)c1 |  | 79 | 2060 |  |  |  |
